Test results as given in PMC8688152, “Distinct classes of potassium channels fused to GPCRs as electrical signaling biosensors” (Cell Reports Methods, 2021).
pEC50, pIC50: −log10 of the molar value.

Experiments:
[1] = target: T1, mTREK-1 −43 (Mus musculus, UniProt P97438); test: TEVC control: unfused N-terminally truncated mTREK-1 −43; format: cell-based; conditions: 10 μM BL1249, TEVC
T1 construct: expressed in transfected cells; host or cells: Xenopus oocytes (mRNA injection); gene synthesized by GeneCust
Method: (§1) Microelectrodes were filled with […]. […] The membrane voltage was clamped to −50 mV.

[2] = target: T2, M2_T-00-43 (UniProt P08172+P97438); test: Whole-cell patch-clamp on HEK293 cells expressing M2_T-00-43; format: cell-based, human (M2), mouse (TREK-1); parameters: expressed in transfected cells; host or cells: HEK293 (pIRES2-eGFP vector)
T2 sequence (P08172+P97438 with tags, fused parts or gaps): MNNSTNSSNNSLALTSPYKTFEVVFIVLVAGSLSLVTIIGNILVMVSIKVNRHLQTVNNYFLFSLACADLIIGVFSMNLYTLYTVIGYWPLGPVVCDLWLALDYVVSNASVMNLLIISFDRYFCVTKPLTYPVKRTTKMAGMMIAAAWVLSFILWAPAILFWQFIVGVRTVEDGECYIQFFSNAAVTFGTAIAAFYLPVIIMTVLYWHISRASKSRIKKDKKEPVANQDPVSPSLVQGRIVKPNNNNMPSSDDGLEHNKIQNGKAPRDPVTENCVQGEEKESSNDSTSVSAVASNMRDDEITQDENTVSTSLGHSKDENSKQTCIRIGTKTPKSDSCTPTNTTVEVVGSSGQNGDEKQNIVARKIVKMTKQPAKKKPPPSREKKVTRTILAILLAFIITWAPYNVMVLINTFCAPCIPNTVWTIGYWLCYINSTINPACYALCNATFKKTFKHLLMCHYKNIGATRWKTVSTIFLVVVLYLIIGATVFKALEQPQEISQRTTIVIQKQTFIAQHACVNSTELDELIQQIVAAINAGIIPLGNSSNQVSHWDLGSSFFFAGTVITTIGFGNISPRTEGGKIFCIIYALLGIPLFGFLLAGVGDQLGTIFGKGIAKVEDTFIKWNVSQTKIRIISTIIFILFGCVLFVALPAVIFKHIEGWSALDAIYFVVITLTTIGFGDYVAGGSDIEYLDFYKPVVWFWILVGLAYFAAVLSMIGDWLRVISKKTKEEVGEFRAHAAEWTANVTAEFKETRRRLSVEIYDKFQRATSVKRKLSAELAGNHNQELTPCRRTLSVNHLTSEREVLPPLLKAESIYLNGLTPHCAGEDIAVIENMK
Method: HEK293 cells were grown in 75-mm tissue-culture dishes (Falcon, Franklin Lakes, NJ) in Dulbecco’s modified Eagle’s medium (Gibco, Life Technologies, Saint Aubin, France) supplemented with 10% fetal calf serum (Hyclone, Thermo Fisher Scientific GMBH, Ulm, Germany) and 1% penicillin/streptomycin (Gibco, Life Technologies, Saint Aubin, France) in a humidified incubator at 37 °C (5% CO2). For electrophysiology of ICCRs, […] of plasmid was transfected using Jet-PEI (PolyPlus Transfection, Illkirch FRANCE) according to the manufacturer’s instructions. Cells were plated onto 35-mm dishes 24 h before transfection, and experiments were performed over the following 1–2 days.
Pipettes were pulled from hematocrit-capillaries (Hirschmann Laborgeraete, Germany) using a vertical puller (PC-10, Narishige International, London, United Kingdom), and had resistances of 3–6 MΩ when filled with internal solution and measured in standard bath solution. Whole cell membrane currents were measured and filtered at 3 kHz by a MultiClamp 700A patch clamp amplifier (Molecular Devices), and digitized at 10 kHz using a 12-bit analog-to-digital converter Digidata-1322A (Axon Instrument, Sunnyvale, CA, United States). Recordings were done using Clampex 9 software (Axon Instrument). […]

[3] = target: T2, M2_T-00-43; test: TEVC recording of M2_T-00-43 ICCR in Xenopus oocytes; format: cell-based, human (M2), mouse (TREK-1); parameters: full-length (−00) or M2 deleted of its last nine residues (−09) in the indicated ICCRs; expressed in transfected cells; host or cells: Xenopus oocytes (mRNA injection)
Method: (§2) Xenopus oocytes were prepared as previously reported ([Moreau et al., 2008]). Briefly, after surgical retrieval, the oocytes were defolliculated by type 1A collagenase. Each oocyte was injected with 50 nl of RNAse-free water containing the desired mRNAs. The mRNA quantities used per oocyte were: ICCR with Kcv, 2.7 ng (M2_Kcv and D2_Kcv) and 2.9 ng (OXTR_Kcv); ICCR with mTREK-1, 4.2 ng; ICCR with Kir6.2, 4.3 ng; M2, 2.3 ng; D2, 2.2 ng; Kir3.4T, 2.2 ng; Kcv 0.46 ng and mTREK-1, 2.1 ng. Microinjected oocytes were incubated 2 to 3 days at 19°C in modified-Barth's solution (in mM: 1 KCl, 0.82 MgSO4, 88 NaCl, 2.4 NaHCO3, 0.41 CaCl2, 16 HEPES, pH 7.4) supplemented with 100 U.ml^−1 of penicillin and streptomycin and 0.1 mg.mL^−1 of gentamycin. Animal handling and experiments fully conformed to European regulations and were approved by the French Ministry of Higher Education and Research (APAFIS#4420-2016030813053199 v4 to CM). Authorization of the animal facility has been delivered by the Prefect of Isere (Authorization #D 38 185 10 001).
(§3) Two-electrode voltage-clamp (TEVC) recordings were performed automatically with HiClamp robots (MultiChannel Systems). These TEVC robots rapidly change the applied solutions by transferring the oocytes in different wells of a 96-well plate. […] Microelectrodes were filled with […]. During recordings, oocytes were incubated in low potassium concentration buffer (ND96, in mM: 96 NaCl, 2 KCl, 1.8 CaCl2, 1 MgCl2, 5 HEPES, pH 7.4 supplemented with 0.3 niflumic acid), and in high potassium buffer (in mM: 91 KCl, 1.8 CaCl2, 1 MgCl2, 5 HEPES, 0.3 niflumic acid, pH 7.4). The membrane voltage was clamped to −50 mV. Ligands and BaCl2 were diluted in the high potassium buffer. […] Ligand effects were measured in high potassium concentration buffer with the membrane potential clamped to −50 mV and at 19°C.
(§4) Change of potassium current induced by ligand was calculated either with the barium-sensitive currents as a 0-reference for Kcv-based ICCRs or with the currents in ND96 for mTREK-1 ICCRs. Softwares created by Michel Vivaudou ([Vivaudou, 2019]) were used to extract the raw data.

[4] = target: T3, M2_Kcv-09-03 (UniProt P08172+Q84568); test: TEVC recording of M2_Kcv-09-03 ICCR expressed in Xenopus oocytes; format: cell-based, human (M2), Paramecium bursaria chlorella virus 1 (Kcv)
T3 construct: expressed in transfected cells; host or cells: Xenopus oocytes (mRNA injection)
T3 sequence (P08172+Q84568 with tags, fused parts or gaps): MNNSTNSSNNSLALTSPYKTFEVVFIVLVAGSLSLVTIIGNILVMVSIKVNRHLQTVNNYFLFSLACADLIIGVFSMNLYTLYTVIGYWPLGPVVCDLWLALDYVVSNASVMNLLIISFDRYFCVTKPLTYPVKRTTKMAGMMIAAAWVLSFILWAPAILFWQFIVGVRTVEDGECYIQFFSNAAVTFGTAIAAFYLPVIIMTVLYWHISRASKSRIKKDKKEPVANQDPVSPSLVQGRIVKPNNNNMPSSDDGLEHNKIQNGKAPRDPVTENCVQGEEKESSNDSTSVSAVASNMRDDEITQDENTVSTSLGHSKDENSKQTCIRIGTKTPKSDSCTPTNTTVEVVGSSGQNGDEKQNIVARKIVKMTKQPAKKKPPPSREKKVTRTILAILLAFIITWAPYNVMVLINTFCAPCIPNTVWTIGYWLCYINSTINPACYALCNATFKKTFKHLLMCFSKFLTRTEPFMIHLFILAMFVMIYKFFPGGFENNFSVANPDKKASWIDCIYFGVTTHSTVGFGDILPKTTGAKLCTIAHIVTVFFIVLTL
Method: as §1

[5] = test system: M2_Kir6.2-09-25; parameters: method as in Moreau et al., 2017; conditions: Kir6.2 ICCRs; ref Moreau et al., 2017; read-out: IC50 observed with Kir6.2 ICCRs; cited from earlier work
[6] = test system: Kir3.4T co-expressed with D2_Kcv-00-03; conditions: TEVC, Xenopus oocytes
Method: as §2, §3, §4

[7] = target: D2_T-00-43 (UniProt P14416+P97438); conditions: weak inhibition, mean ± SEM
Method: as §2, §3, §4

[8] = target: D2_T+09M2-43 (UniProt P14416+P97438); conditions: TEVC
Method: as §2, §3, §4

[9] = target: unfused D2L and mTREK-1 (D2+mTREK-1) (Homo sapiens, UniProt P14416); conditions: control with co-expression of the unfused proteins, mean ± SEM
Method: as §2, §3, §4

[10] = test system: D2_K+09M2-25; conditions: read-out: EC50 on the equivalent Kir6.2 ICCR (D2_K+09M2-25); ref Moreau et al., 2008; cited from earlier work
[11] = test system: OXTR[T4L]_Kcv-42-03; test: TEVC recording of OXTR[T4L]_Kcv-42-03 in Xenopus oocytes; format: cell-based, human (OXTR), Paramecium bursaria chlorella virus 1 (Kcv)
Method: as §2, with “Authorization of the animal facility has been delivered by the Prefect of Isere (Authorization #D 38 185 10 001).” left out
Two-electrode voltage-clamp (TEVC) recordings were performed automatically with HiClamp robots (MultiChannel Systems). […] Ligand effects were measured in high potassium concentration buffer with the membrane potential clamped to −50 mV and at 19°C.
Change of potassium current induced by ligand was calculated either with the barium-sensitive currents as a 0-reference for Kcv-based ICCRs or with the currents in ND96 for mTREK-1 ICCRs. […]

[12] = concentration-effect curve, TEVC

Sequence of D2_T+09M2-43 (P14416+P97438 fused): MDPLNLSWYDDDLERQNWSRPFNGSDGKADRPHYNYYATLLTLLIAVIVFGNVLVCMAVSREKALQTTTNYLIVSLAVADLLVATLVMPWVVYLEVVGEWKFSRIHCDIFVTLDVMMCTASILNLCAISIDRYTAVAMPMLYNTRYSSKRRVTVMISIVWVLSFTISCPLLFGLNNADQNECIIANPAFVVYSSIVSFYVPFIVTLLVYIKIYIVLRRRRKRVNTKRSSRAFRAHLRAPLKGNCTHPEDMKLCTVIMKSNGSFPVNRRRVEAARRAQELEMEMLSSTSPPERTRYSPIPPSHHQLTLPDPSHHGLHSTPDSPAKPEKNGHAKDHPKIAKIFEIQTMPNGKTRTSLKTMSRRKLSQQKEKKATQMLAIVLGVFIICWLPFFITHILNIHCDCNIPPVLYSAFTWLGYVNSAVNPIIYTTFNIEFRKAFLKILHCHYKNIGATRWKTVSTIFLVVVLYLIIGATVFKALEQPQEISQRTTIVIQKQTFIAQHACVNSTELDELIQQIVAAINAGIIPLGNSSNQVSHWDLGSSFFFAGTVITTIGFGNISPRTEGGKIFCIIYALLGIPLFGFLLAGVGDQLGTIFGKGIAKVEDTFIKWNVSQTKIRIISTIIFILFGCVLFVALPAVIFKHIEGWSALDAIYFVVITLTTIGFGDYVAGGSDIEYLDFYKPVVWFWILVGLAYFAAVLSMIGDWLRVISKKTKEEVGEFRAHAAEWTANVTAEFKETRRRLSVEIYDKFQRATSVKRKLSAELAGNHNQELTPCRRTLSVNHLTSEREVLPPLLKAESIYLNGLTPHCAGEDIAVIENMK
Sequence of unfused D2L and mTREK-1 (D2+mTREK-1) (P14416 whole entry, the tested form may be a part): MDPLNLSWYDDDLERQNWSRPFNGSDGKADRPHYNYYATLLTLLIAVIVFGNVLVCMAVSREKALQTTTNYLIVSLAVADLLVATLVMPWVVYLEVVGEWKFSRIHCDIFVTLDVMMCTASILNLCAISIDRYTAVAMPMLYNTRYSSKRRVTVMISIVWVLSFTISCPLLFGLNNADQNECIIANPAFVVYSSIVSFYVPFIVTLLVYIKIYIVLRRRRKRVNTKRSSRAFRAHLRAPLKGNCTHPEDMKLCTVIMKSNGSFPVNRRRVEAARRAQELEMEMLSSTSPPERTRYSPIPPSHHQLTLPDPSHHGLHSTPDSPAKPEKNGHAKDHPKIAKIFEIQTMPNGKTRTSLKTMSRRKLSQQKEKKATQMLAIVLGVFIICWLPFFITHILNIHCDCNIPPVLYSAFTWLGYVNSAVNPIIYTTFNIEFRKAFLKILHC
Sequence of D2_T-00-43 (P14416+P97438 fused): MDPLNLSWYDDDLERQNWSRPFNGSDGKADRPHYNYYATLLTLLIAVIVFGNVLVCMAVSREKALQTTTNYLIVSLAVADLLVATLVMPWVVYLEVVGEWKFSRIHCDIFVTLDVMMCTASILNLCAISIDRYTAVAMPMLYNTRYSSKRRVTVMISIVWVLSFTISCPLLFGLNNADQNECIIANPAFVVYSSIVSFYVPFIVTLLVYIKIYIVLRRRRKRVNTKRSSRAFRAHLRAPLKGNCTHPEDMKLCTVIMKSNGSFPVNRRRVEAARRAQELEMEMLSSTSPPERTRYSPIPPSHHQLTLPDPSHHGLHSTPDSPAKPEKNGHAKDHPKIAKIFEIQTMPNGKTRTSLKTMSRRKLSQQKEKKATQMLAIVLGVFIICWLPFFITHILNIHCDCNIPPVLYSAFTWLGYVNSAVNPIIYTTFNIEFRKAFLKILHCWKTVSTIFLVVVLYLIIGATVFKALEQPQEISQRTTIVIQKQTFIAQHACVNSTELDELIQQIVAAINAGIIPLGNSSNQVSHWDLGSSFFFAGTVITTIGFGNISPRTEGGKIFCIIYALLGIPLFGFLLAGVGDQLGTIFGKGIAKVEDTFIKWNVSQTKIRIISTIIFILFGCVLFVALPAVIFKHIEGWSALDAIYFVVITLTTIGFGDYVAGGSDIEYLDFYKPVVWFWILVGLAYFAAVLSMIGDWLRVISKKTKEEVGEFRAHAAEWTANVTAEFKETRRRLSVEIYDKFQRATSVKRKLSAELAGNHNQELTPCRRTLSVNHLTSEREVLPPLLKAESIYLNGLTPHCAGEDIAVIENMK

## c1ccc(-c2nn[nH]n2)c(Nc2cccc3c2CCCC3)c1 [BL1249]
[1]
  activation of unfused truncated mTREK-1 −43 by BL1249, compared with WT channel: lower activation
[2]; 10 μM BL1249, mean ± SEM
  activation of M2_T-00-43: increase of the current: 880% ± 190%

## C[N+](C)(C)CCOC(N)=O [CCh, carbachol]
[3]; [12]
  Hill coefficient (nH) on M2_T-00-43: 0.97
[4]; [12]
  Hill coefficient (nH) on M2_Kcv-09-03: 0.98
[5]
  pIC50: 5.92

## CN1[C@@H]2CC[C@H]1C[C@@H](OC(=O)C(CO)c1ccccc1)C2 (stereo partly drawn) [atropine]
[3]
  effect of atropine co-application on ACh-induced activation of M2_T-00-43: inhibited ACh-induced activation
[4]; 1 μM atropine co-applied with ACh 5 μM
  effect of atropine co-application on the ACh response of M2_Kcv-09-03: almost entirely abolished the ACh response

## NCCc1ccc(O)c(O)c1 [dopamine]
[6]
  G protein activation (Kir3.4T) by D2_Kcv-00-03 upon dopamine application: triggers the activation of the endogenous Gi/o proteins
[7]
  % of current change induced by 5 μM dopamine on D2_T-00-43: −4.1% ± 0.6%
[8]; 5 μM, Xenopus oocytes, mean ± SEM
  activation: % of current change induced by 5 μM dopamine on D2_T+09M2-43: 12.1% ± 1.7%
[8]; concentration-effect curve
  Hill coefficient (nH) on D2_T+09M2-43: 0.76
[9]
  % of current change induced by 5 μM dopamine on unfused D2 + mTREK-1: −2.2% ± 1.3%
[10]
  pEC50: 6.40

## oxytocin
[11]
  response of OXTR[T4L]_Kcv-42-03 to oxytocin: did not induce any response

## spadin
[2]; 1 μM spadin with 10 μM BL1249, mean ± SEM
  inhibition of BL1249 activation of M2_T-00-43: 56.8% ± 9.1%
